Columns and labels:
L1210 = assay: Efficacy in mouse tumor model L1210; format: in vivo
Method: (§1) The efficacy of the compounds of the present invention was also tested in vivo using three well-known mouse tumor models: L1210, Lewis Lung, and Colon Carcinoma 26.

Colon Carcinoma 26 = assay: Efficacy in mouse tumor model Colon Carcinoma 26; format: in vivo
Method: as §1

Lewis Lung = assay: Efficacy in mouse tumor model Lewis Lung; format: in vivo
Method: as §1

[1] = tested on: topoisomerase I; mouse tumor models; assay: Overall comparison of topoisomerase I inhibition ability, cytotoxicity and efficacy in mouse tumor models; details: results of Table I
[2] = tested on: solid tumor cancers, particularly ovarian cancer and non-small cell lung carcinoma; details: humans; cited from earlier work
topoisomerase II = details: cited from earlier work
[3] = in vivo; cited from earlier work

## CC[C@@]1(O)C(=O)OCc2c1cc1n(c2=O)Cc2cc3ccccc3nc2-1 [Camptothecin]
L1210; 12 mg/kg ip
  % Inc. in Lifespan, L1210: 133%
Colon Carcinoma 26; 4 mg/kg ip
  % Inc. in Lifespan, Colon 26: 50%

## CC[C@@]1(O)C(=O)OCc2c1cc1n(c2=O)Cc2cc3c4c(ccc3nc2-1)OC(CN1CCOCC1)C4 (stereo partly drawn) [Formula III, (8S)-8-ethyl-1,2-dihydro-8-hydroxy-2(4-morpholinylmethyl)-11H-furano[3,2-f]-pyrano[3',4':6,7]indolizino[1,2-b]quinoline-9,12(8H,14H)-dione]
L1210; 42 mg/kg ip
  % Inc. in Lifespan, L1210: 350%
Lewis Lung; 22 mg/kg ip
  % Inc. in Lifespan, Lewis Lung: > 225%
Colon Carcinoma 26; 20 mg/kg sc
  % Inc. in Lifespan, Colon 26: 45%
[1]
  biological activity compared with camptothecin and topotecan: comparable to camptothecin and topotecan

## CC[C@@]1(O)C(=O)OCc2c1cc1n(c2=O)Cc2cc3c4c(ccc3nc2-1)OC(CN(C)C)C4 (stereo partly drawn) [Formula IV, (8S)-2-[(dimethylamino)methyl]-8-ethyl-1,2-dihydro-8-hydroxy-11H-furano[3,2-f]-pyrano[3',4':6,7]indolizino[1,2-b]quinoline-9,12(8H,14H)-dione]
L1210; 15 mg/kg ip
  % Inc. in Lifespan, L1210: 225%
Lewis Lung; 9 mg/kg ip
  % Inc. in Lifespan, Lewis Lung: 67%
Colon Carcinoma 26; 20 mg/kg sc
  % Inc. in Lifespan, Colon 26: 32%
[1]
  biological activity compared with camptothecin and topotecan: comparable to camptothecin and topotecan

## CC[C@@]1(O)C(=O)OCc2c1cc1n(c2=O)Cc2cc3c(CN(C)C)c(O)ccc3nc2-1 [Topotecan, 9-dimethylaminomethyl-10-hydroxycamptothecin]
L1210; 15 mg/kg ip
  % Inc. in Lifespan, L1210: 217%
Lewis Lung; 15 mg/kg ip
  % Inc. in Lifespan, Lewis Lung: 106%
Colon Carcinoma 26; 20 mg/kg sc
  % Inc. in Lifespan, Colon 26: 45%
[2]
  efficacy in clinical tests: efficacy against several solid tumor cancers, particularly ovarian cancer and non-small cell lung carcinoma

## COc1cccc2c1C(=O)c1c(O)c3c(c(O)c1C2=O)C[C@@](O)(C(=O)CO)C[C@@H]3O[C@H]1C[C@H](N)[C@H](O)[C@H](C)O1 [doxorubicin]
Topoisomerase II
  effect on topoisomerase II: Inhibition of topoisomerase II

## COc1cc([C@@H]2c3cc4c(cc3[C@@H](O[C@@H]3O[C@@H]5CO[C@@H](C)O[C@H]5[C@H](O)[C@H]3O)[C@H]3COC(=O)[C@H]23)OCO4)cc(OC)c1O [etoposide]
Topoisomerase II
  effect on topoisomerase II: Inhibition of topoisomerase II

## O=C1c2c(O)ccc(O)c2C(=O)c2c(NCCNCCO)ccc(NCCNCCO)c21 [mitoxantrone]
Topoisomerase II
  effect on topoisomerase II: Inhibition of topoisomerase II

## (S)-10-amino-4-ethyl-4-hydroxy-1H-pyrano[3',4':6,7]indolizino[1,2-b]quinoline-3,14(4H,12H)-dione [CPT-11]
[3]
  toxicity profile: adverse toxicity profile

From US6046209A (priority 1998, dated 2000)
